Like-named read-outs stand apart in the source and are kept apart here.
Tests used:
[1] = system: T1, Mcm2-7; assay: ssDNA double filter-binding assay, Mcm2-7; parameters: species or system Saccharomyces cerevisiae; conditions: 1 mM compound, 150 nM helicase
T1 construct: made in house; host or cells: baculovirus-infected insect cells

[2] = molecular target: T2, Mcm467 (Saccharomyces cerevisiae, UniProt P30665+P38132+P53091); assay: ssDNA double filter-binding assay, Mcm467; conditions: 1 mM compound, 150 nM helicase
T2 construct: made in house; host or cells: baculovirus-infected insect cells
T2 sequence (P30665 whole entry): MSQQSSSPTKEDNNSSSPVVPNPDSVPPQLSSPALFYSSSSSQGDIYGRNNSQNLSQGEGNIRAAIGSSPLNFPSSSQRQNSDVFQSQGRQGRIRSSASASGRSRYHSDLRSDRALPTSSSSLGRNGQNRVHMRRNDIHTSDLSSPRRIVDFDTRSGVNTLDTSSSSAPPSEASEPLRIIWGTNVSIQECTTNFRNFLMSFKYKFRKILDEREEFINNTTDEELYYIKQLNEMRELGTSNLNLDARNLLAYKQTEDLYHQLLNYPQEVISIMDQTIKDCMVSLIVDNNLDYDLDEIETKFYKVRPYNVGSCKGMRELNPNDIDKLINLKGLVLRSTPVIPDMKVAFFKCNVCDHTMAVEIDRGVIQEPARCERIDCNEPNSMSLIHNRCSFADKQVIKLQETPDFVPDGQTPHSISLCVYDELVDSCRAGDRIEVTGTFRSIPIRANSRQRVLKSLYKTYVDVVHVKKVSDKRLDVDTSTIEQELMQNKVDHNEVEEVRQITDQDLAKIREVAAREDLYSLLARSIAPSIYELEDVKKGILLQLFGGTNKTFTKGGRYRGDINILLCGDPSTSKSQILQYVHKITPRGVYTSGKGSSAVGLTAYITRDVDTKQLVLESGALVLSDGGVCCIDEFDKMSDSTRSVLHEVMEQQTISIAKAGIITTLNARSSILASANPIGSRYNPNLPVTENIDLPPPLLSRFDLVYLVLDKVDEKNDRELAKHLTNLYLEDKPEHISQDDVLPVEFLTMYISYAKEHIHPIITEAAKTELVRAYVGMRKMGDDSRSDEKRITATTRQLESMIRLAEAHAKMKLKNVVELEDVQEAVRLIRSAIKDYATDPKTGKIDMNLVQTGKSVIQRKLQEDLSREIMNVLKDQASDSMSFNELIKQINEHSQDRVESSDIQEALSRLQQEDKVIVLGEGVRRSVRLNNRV
T2 sequence (P53091 whole entry): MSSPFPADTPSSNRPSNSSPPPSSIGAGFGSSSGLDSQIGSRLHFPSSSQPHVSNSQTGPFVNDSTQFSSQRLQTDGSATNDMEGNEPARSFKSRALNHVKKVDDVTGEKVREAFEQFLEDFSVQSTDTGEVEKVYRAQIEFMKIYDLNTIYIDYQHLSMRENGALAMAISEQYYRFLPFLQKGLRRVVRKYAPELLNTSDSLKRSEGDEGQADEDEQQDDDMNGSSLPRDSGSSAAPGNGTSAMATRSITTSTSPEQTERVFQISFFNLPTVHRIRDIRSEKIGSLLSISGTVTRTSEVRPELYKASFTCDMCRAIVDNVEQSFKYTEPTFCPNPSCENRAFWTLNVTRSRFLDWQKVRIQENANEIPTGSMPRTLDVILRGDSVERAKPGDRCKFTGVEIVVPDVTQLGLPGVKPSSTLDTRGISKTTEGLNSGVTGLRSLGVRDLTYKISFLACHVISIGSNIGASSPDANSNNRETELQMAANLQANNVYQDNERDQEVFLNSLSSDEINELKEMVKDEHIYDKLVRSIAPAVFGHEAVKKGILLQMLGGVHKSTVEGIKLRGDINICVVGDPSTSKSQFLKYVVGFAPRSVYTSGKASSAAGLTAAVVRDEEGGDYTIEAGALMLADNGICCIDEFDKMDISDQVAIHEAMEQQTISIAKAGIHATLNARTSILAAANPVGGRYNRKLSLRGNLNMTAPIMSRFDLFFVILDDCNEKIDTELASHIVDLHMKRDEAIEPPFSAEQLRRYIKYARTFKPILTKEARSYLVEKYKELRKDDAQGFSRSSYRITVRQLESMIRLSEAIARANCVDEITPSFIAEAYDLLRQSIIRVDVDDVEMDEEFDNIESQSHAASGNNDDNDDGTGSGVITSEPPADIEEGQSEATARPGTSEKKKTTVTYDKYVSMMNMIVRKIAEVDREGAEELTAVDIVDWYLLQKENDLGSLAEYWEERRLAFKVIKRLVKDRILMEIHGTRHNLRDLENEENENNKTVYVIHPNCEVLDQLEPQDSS
T2 sequence (P38132 whole entry): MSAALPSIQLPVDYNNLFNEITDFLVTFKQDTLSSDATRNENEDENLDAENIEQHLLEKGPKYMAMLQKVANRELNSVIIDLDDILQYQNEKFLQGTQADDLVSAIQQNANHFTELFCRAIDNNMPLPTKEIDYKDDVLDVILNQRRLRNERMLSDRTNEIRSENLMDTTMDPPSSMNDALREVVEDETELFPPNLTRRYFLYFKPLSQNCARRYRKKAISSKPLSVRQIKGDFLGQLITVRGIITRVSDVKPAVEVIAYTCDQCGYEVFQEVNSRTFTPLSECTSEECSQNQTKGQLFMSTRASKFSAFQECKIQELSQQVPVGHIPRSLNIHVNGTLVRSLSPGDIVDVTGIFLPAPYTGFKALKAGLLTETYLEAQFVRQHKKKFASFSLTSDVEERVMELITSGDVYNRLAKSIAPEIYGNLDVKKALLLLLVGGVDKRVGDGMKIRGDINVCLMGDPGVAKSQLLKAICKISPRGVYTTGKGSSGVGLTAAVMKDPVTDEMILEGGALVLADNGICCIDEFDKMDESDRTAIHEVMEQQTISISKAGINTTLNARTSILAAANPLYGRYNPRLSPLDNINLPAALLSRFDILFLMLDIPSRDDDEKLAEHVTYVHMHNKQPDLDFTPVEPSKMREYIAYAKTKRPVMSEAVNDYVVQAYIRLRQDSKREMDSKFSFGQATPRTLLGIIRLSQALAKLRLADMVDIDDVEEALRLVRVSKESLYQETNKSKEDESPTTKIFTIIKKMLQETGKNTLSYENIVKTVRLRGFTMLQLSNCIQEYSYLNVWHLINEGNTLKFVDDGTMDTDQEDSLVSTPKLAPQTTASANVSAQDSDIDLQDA

[3] = molecular target: T3, T4 gp41 (Enterobacteria phage T4, UniProt P04530); assay: T4 gp41 helicase assay; format: biochemical; conditions: 1 mM, Figure S3
T3 sequence (P04530 1-475): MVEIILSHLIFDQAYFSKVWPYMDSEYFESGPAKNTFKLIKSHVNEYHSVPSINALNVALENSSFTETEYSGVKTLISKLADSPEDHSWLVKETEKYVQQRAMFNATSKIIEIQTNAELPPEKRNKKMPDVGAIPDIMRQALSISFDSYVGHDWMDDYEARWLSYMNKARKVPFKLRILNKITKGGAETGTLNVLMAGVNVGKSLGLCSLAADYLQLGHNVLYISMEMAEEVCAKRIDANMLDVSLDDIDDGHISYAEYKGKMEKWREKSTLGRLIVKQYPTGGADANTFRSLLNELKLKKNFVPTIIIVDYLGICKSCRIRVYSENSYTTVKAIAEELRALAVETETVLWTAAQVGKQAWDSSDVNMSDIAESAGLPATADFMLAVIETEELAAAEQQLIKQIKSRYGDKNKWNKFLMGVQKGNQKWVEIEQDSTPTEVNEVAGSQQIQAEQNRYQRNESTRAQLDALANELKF
Description: (§1) Helicase assays were performed essentially as described. Synthetic replication forks were prepared by annealing oligos 233 and 235 [IDT (Coralville), oligo 233 5′(T)40[…]; oligo 235 5′ […](T)40] and then filling in the recessed 3′-end with [α32P]dATP and unlabelled dNTPs using Klenow Fragment. Briefly, reactions ([…]) were performed in 1× helicase assay buffer [20 mM Tris/HCl (pH 7.5), 10 mM MgOAc, 20% (v/v) glycerol, 100 μM EDTA and 5 mM DTT (dithiothreitol)] and contained a final concentration of 1 nM fork substrate, 5 mM ATP, 40 mM creatine phosphate, […] creatine kinase, 33 μg/ml BSA. Reactions containing Mcm2-7 and Mcm467 were supplemented with 200 mM potassium glutamate. Reactions containing SsoMcm were incubated at 65°C, those containing T4 gp41 were incubated for 30 min at 37°C, and all other reactions were incubated at 37°C for 1 h. The products were separated by 10% (w/v) native PAGE, the resulting gels dried and the radioactivity quantified using a Fuji FLA-5100 phosphoimager. Irrespective of the protein used, all helicase assays contained equal molar helicase concentrations (100 nM, assuming in all cases that the active helicase form is hexameric). Steady-state ATP hydrolysis was assayed as published. In short, reactions were set up essentially as in the helicase assay, with minor exceptions. A non-radiolabelled DNA fork was used, helicase concentration was 100 nM (hexamer) the total ATP concentration was 500 μM and included ~0.5 μCi of [α32P]ATP, and the ATP regeneration system was omitted. Reactions were incubated for 1 h at 37°C and stopped by the addition of SDS. ATP was separated from ADP by PEI (polyethyleneimine) thin layer chromatography, and the ratio of ATP:ADP was quantified using a Fuji FLA-5100 phosphoimager. Based on our prior work, conditions were established to ensure that the results shown are within the linear range of the assay. Protein–ssDNA binding was determined with a double filter-binding assay using an ssDNA probe (oligo 826, 5′[…]) that was 5′-radiolabelled using T4 polynucleotide kinase and [γ32P]ATP [16]. For the double filter-binding assay, the helicase concentration was 150 nM (hexamer) and the ssDNA concentration was 4 nM. For all biochemical assays, helicases were preincubated with inhibitors for 20 min at 37°C unless otherwise indicated. […]
(§2) against different helicases
(§3) Representative helicase activity assays in the presence of the indicated inhibitor were tested, quantiﬁed and standardized as described in the legend to F igures 2 (A) and (B). All helicases were assayed at 100 nM
(§4) ﬁnal concentration (hexamer) with inhibitor preincubation prior to ATP […]
(§5) F igure S3 Ciproﬂoxacin poor ly inhibits hexameric helicases un- […]
(§6) All inhibitors were used at 1 mM ﬁnal concentration. […]

[4] = molecular target: T2, Mcm467; assay: Mcm467 helicase (DNA unwinding) assay; format: biochemical
[5] = molecular target: T1, Mcm2-7; assay: Mcm2-7 helicase (DNA unwinding) assay; format: biochemical, Saccharomyces cerevisiae; conditions: for IC50: DNA unwinding
[6] = system: RPE-hTERT cells; assay: Human cell viability, MTS method; format: cell-based; conditions: 48 h, value (95% CI)
Description: Ciproﬂoxacin is an inhibitor of the Mcm2-7 […]
The viability of human cells was assayed using the MTS method
[1]. Brieﬂy, 1 ×10^5 cells of the human non-tumour cell line RPE-hTERT were plated into each well of a 96-well plate and grown in DMEM: F12 containing 10 % (v/v) FBS in 5 % (v/v) CO2 at 37 ◦ C. The next day, the indicated compounds were titrated into media such that the ﬁnal concentration contained 1 % (v/v)
DMSO. As a negative control, media were also prepared that contained 1 % DMSO but lacked compound. After 48 h, the media was removed and replaced with DMEM lacking phenol red but containing Cell Titer 96 Aqueous One Solution Cell Proliferation
Assay (Promega). After 1 h, the A490 nm was measured using a BioRad iMark Microplate Reader (Hercules). Final data reﬂect the average and standard deviation (S.D.) of three replicates at each compound concentration. […]

[7] = system: S. cerevisiae ∆erg6 (UPY675); assay: Yeast growth inhibition, 96-well assay, ∆erg6 strain; format: cell-based, Saccharomyces cerevisiae; conditions: for IC50: Saccharomyces cerevisiae, ∆erg6 strain, growth over 24 h, read-out: IC50 Yeast
[8] = system: pUC19; assay: DNA intercalation assay (Topo I-relaxed plasmid); format: biochemical
Source text: To examine this model, we tested our inhibitors in a standard topoisomerase assay. The rationale of this assay is that intercalating compounds will introduce supercoils into a fully relaxed plasmid. Topo I will remove these introduced supercoils, but after quenching and gel electrophoresis the intercalator will diffuse away and produce a detectable compensatory supercoiling increase.

[9] = molecular target: DnaB (Escherichia coli, UniProt P0ACB0); assay: DnaB helicase assay; format: biochemical; conditions: 1 mM, Figure S3
Sequence of DnaB (P0ACB0 whole entry): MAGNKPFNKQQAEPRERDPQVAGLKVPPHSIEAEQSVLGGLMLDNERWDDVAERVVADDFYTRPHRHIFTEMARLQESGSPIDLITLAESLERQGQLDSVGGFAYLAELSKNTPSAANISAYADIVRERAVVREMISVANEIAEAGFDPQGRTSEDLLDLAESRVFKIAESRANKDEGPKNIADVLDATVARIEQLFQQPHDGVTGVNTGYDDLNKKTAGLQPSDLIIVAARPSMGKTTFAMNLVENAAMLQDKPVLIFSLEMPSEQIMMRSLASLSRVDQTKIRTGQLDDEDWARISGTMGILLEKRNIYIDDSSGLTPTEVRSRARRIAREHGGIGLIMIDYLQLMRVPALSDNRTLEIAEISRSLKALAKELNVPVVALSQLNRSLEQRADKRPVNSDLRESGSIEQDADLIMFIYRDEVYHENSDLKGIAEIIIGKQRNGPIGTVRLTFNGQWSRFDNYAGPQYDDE
Description: as §1, §2, §3, §4, §5, §6

[10] = molecular target: SV40 large TAg (T-antigen) (Simian virus 40, UniProt P03070); assay: biochemical; parameters: species or system SV40 (simian virus 40); conditions: for IC50: DNA unwinding
Sequence of SV40 large TAg (T-antigen) (P03070 whole entry, looked up): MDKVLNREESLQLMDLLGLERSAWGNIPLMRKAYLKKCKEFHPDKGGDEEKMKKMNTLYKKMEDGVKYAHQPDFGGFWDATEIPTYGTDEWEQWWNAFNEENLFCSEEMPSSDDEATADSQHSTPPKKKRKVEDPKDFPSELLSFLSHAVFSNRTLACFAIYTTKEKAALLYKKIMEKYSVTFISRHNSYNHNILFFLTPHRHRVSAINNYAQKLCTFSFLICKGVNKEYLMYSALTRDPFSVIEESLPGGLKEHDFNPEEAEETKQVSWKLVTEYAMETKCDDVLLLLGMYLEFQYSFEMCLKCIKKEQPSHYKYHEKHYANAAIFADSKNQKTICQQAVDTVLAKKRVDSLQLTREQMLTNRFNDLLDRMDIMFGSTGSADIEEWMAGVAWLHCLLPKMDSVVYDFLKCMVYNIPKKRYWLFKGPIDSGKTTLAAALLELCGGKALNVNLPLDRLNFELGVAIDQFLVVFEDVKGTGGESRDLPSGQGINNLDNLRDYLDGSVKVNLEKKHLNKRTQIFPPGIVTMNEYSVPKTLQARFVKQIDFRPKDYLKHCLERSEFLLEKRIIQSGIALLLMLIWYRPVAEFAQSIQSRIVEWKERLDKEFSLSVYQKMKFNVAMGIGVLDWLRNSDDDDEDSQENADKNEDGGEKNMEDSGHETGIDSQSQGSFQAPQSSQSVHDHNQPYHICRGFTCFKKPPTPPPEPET

[11] = system: T1, Mcm2-7; assay: Steady-state ATP hydrolysis by Mcm2-7; format: biochemical, Saccharomyces cerevisiae; conditions: 1 mM compound, 100 nM hexamer
[12] = molecular target: T4, SV40 large TAg (Simian virus 40, UniProt P03070); assay: Steady-state ATP hydrolysis by TAg; format: biochemical, SV40 (simian virus 40); conditions: 1 mM compound, 100 nM hexamer
T4 construct: made in house
T4 sequence (P03070 whole entry): as the sequence (P03070 whole entry, looked up) above

[13] = molecular target: T2, Mcm467; assay: Steady-state ATP hydrolysis by Mcm467; format: biochemical; conditions: 1 mM compound, 100 nM hexamer
[14] = molecular target: T5, SsoMcm (Sulfolobus solfataricus Mcm protein) complex (Saccharolobus solfataricus, UniProt Q9UXG1); assay: SsoMcm helicase assay; format: biochemical; conditions: 1 mM, 65°C, Figure S3
T5 sequence (Q9UXG1 1-686): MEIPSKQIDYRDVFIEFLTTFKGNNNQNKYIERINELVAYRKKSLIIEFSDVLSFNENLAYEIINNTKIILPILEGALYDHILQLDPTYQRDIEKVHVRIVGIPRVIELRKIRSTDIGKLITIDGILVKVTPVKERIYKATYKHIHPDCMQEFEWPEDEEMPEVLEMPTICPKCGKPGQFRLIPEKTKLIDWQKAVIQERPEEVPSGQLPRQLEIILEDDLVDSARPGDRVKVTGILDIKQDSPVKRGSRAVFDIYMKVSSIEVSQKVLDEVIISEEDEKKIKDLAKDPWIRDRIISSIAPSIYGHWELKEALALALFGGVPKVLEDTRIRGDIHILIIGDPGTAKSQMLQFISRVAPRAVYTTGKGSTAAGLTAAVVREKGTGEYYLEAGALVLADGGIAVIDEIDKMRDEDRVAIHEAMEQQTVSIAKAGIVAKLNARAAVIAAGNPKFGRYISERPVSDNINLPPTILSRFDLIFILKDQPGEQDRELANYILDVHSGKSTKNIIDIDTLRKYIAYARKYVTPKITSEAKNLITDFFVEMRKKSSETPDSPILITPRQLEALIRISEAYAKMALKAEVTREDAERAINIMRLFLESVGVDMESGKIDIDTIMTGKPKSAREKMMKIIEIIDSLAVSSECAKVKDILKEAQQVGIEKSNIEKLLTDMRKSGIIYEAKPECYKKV
Description: Helicase assays were performed essentially as described. Synthetic replication forks were prepared by annealing oligos 233 and 235 [IDT (Coralville), oligo 233 5′(T)40[…]; oligo 235 5′ […](T)40] and then filling in the recessed 3′-end with [α32P]dATP and unlabelled dNTPs using Klenow Fragment. Briefly, reactions ([…]) were performed in 1× helicase assay buffer [20 mM Tris/HCl (pH 7.5), 10 mM MgOAc, 20% (v/v) glycerol, 100 μM EDTA and 5 mM DTT (dithiothreitol)] and contained a final concentration of 1 nM fork substrate, 5 mM ATP, 40 mM creatine phosphate, […] creatine kinase, 33 μg/ml BSA. Reactions containing Mcm2-7 and Mcm467 were supplemented with 200 mM potassium glutamate. Reactions containing SsoMcm were incubated at 65°C, those containing T4 gp41 were incubated for 30 min at 37°C, and all other reactions were incubated at 37°C for 1 h. The products were separated by 10% (w/v) native PAGE, the resulting gels dried and the radioactivity quantified using a Fuji FLA-5100 phosphoimager. […] ATP was separated from ADP by PEI (polyethyleneimine) thin layer chromatography, and the ratio of ATP:ADP was quantified using a Fuji FLA-5100 phosphoimager. […] Protein–ssDNA binding was determined with a double filter-binding assay using an ssDNA probe (oligo 826, 5′[…]) that was 5′-radiolabelled using T4 polynucleotide kinase and [γ32P]ATP [16]. […]

[15] = 1 mM inhibitor added after plasmid relaxation (Figure 3C)
[16] = inhibitor at 2- to 3-fold over calculated helicase IC50 (Figure 3E)
[17] = 100 nM hexamer, inhibitor preincubation, […], read-out: IC50 T-antigen
[18] = DNA unwinding, 100 nM hexamer, inhibitor preincubation, value (95% CI), read-out: IC50 Mcm467
[19] = 100 nM hexamer, inhibitor preincubation, value (95% CI), read-out: IC50 Mcm2-7
[20] = any concentration tested, results not shown

SMILES | inhibition of T4 gp41 helicase [3] | IC50 ([6]; Homo sapiens) [µM] | IC50 ([7]; value (95% CI)) [µM] | DNA intercalation [8, 15] | inhibition of DnaB helicase [9] | IC50 [10, 17] [µM] | IC50 [4, 18] [µM] | IC50 [5, 19] [µM] | also measured
CCN1C(=O)C=CC1=O [NEM, N-ethylmaleimide] | – | – | – | – | – | – | – | – | effect on ssDNA binding of Mcm2-7 [1]: inhibit; effect on ssDNA binding of Mcm467 [2]: inhibit
Cc1c(F)c(N2CCC(N)C2)nc2c1c(=O)c(C(=O)O)cn2C1CC1 (stereo not drawn) [compound 125248] | nearly complete inhibition | ~10 | 460 | extensive DNA intercalation | nearly complete inhibition | 190 | – | – | IC50 ([4]; IC50 Mcm467, DNA unwinding, 100 nM hexamer, inhibitor preincubation, value (95% CI)): 130 µM; IC50 ([5]; read-out: IC50 Mcm2-7, 100 nM hexamer, inhibitor preincubation, value (95% CI)): 72 µM; IC50 [6]: 14 µM; DNA intercalation [8, 16]: significant DNA intercalation
NC1CCN(c2ccc3c(=O)c(C(=O)O)cn(-c4ccc(O)cc4)c3c2Cl)C1 (stereo not drawn) [compound 268973] | nearly complete inhibition | – | 160 | extensive DNA intercalation | nearly complete inhibition | 476 | 272 | 188 | effect on ATP hydrolysis of Mcm2-7 [11]: modest inhibition; effect on ATP hydrolysis of TAg [12]: modest inhibition; DNA intercalation [8, 16]: significant DNA intercalation; effect on ATP hydrolysis of Mcm467 [13]: modest inhibition
CSc1c(N2CCC(C(C)N)C2)ccc2c(=O)c(C(=O)O)cn(C3CC3)c12 (stereo not drawn) [compound 314850] | – | 500 to 700 | 520 | little or no intercalation | – | > 1000 | 707 | 261 | effect on ATP hydrolysis of Mcm2-7 [11]: essentially no inhibition; effect on ATP hydrolysis of TAg [12]: essentially no inhibition; IC50 [6]: 340 µM; inhibition of SsoMcm helicase [14]: effectively inhibited; effect on ATP hydrolysis of Mcm467 [13]: essentially no inhibition
Cc1ccc(-c2cc(-c3ccccc3)nc(N3CCNCC3)n2)cc1 [compound 388612] | – | – | – | extensive DNA intercalation | – | 126 | 345 | 396 | IC50 ([7]; insufficient data for 95% CI): < 0.01 µM
c1ccc(Nc2nc(Nc3ccccc3)nc(N3CCNCC3)n2)cc1 [compound 924384] | nearly complete inhibition | ~10 | 93 | extensive DNA intercalation | nearly complete inhibition | 70 | 246 | 115 | –
CCn1cc(C(=O)O)c(=O)c2ccc(C)nc21 [naladixic acid, reference compound] | – | – | – | – | – | – | – | – | effect on Mcm467 helicase activity [4, 20]: essentially no effect; effect on Mcm2-7 helicase activity [5, 20]: essentially no effect; effect on TAg helicase activity [10, 20]: essentially no effect
CC1COc2c(N3CCN(C)CC3)c(F)cc3c(=O)c(C(=O)O)cn1c23 (stereo not drawn) [ofloxacin, reference compound] | – | – | – | – | – | – | – | – | IC50 ([4]; DNA unwinding, 100 nM complex, read-out: IC50 Mcm467 helicase activity): 5290 µM; IC50 ([5]; 100 nM complex, read-out: IC50 Mcm2-7 helicase activity): 4170 µM; growth response of ∆erg6 yeast ([7]; Figure 4A): demonstrable growth sensitivity; IC50 ([10]; 100 nM complex, read-out: IC50 TAg helicase activity): > 20000 µM

From paper PMC3791872 (Bioscience Reports, 2013)
